Measured values published in patent US10670605B2, “Cysteine reactive probes and uses thereof” (The Scripps Research Institute, priority 2015, dated 2020).
Blank lines part the entries; values can stand above or below the compound they belong to.

How the values were obtained:
Assay in all cases: Competitive isoTOP-ABPP in situ (fragment-treated cells)
Format in all cases: cell-based
[1] = target: cysteines in MDA-MB-231 and Ramos cells (Homo sapiens, UniProt Q9ULV4)
[2] = target: T1, cysteines in MDA-MB-231 and Ramos cells (Homo sapiens, UniProt O95229)
T1 sequence (O95229 1-277): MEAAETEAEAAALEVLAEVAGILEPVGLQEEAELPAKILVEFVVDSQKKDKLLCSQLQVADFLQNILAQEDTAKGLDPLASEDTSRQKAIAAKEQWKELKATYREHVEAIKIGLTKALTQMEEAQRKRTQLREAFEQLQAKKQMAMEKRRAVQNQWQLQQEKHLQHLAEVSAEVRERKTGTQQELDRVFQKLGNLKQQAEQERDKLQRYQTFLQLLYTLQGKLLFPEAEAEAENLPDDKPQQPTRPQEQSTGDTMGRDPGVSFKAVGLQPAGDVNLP

[3] = target: T2, cysteines in MDA-MB-231 and Ramos cells (Homo sapiens, UniProt Q9NQW6)
T2 sequence (Q9NQW6 1-1124): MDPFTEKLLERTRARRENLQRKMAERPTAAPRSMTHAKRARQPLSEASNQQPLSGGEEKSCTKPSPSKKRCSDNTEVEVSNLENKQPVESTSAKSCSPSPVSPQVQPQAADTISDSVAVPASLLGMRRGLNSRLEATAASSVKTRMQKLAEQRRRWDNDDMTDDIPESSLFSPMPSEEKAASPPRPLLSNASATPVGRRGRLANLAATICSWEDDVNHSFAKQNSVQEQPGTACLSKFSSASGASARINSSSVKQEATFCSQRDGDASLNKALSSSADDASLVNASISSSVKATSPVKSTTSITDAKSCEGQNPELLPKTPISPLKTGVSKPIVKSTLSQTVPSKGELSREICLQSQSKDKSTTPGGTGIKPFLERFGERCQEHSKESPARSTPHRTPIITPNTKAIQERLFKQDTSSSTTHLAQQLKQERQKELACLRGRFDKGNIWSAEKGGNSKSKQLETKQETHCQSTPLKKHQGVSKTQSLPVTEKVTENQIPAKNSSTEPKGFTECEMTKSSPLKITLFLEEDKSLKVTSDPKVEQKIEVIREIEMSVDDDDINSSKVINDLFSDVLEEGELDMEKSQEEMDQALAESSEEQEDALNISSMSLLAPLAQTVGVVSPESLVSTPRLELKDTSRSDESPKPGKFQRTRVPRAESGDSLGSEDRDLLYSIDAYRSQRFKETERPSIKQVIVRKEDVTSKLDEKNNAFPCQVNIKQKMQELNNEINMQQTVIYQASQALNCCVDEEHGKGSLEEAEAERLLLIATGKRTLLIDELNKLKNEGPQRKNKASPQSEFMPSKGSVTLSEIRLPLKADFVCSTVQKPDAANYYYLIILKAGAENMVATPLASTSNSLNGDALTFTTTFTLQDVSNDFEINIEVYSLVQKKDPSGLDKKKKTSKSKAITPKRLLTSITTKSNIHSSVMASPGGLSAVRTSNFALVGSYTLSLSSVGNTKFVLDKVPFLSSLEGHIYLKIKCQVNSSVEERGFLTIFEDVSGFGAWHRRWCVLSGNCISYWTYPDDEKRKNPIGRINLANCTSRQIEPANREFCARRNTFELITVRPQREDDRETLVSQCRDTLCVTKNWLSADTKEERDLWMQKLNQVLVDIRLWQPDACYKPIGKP

[4] = target: T3, cysteines in MDA-MB-231 and Ramos cells (Homo sapiens, UniProt Q29RF7)
T3 sequence (Q29RF7 1-1337): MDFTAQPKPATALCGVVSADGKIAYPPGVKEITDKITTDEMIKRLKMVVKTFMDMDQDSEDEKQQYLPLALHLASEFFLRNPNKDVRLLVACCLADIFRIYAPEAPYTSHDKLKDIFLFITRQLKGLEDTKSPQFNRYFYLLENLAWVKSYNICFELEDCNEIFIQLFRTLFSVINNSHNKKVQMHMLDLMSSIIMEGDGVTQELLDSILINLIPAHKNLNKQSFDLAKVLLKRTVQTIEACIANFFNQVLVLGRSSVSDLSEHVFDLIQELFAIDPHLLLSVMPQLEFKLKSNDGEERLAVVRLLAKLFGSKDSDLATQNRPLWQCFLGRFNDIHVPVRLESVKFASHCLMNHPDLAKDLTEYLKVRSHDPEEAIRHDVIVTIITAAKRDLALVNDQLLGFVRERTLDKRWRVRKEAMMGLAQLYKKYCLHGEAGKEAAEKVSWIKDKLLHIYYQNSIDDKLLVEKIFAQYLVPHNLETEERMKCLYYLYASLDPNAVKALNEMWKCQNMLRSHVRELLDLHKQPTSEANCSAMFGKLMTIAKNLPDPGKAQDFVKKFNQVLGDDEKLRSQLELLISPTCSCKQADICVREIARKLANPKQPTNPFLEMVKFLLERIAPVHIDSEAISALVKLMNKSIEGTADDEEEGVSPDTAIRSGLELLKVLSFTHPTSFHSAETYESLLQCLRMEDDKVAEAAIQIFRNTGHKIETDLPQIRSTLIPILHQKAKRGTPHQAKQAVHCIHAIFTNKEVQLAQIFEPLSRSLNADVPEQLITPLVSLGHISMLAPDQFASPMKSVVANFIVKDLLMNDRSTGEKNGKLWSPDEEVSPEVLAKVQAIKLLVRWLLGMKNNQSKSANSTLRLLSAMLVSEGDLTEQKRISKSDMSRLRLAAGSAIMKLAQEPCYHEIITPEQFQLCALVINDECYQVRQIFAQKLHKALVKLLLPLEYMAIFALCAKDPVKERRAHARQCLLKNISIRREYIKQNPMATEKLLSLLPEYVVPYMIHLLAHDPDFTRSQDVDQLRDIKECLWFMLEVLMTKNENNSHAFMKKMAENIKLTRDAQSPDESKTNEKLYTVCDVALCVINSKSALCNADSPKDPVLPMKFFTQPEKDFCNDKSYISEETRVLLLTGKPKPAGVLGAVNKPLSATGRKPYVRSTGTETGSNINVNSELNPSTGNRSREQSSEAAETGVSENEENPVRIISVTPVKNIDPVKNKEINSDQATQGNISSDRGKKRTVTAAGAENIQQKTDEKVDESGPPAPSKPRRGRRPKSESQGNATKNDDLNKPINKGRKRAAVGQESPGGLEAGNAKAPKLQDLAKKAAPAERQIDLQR

Sequence of cysteines in MDA-MB-231 and Ramos cells (Homo sapiens, UniProt Q9ULV4) (Q9ULV4 whole entry): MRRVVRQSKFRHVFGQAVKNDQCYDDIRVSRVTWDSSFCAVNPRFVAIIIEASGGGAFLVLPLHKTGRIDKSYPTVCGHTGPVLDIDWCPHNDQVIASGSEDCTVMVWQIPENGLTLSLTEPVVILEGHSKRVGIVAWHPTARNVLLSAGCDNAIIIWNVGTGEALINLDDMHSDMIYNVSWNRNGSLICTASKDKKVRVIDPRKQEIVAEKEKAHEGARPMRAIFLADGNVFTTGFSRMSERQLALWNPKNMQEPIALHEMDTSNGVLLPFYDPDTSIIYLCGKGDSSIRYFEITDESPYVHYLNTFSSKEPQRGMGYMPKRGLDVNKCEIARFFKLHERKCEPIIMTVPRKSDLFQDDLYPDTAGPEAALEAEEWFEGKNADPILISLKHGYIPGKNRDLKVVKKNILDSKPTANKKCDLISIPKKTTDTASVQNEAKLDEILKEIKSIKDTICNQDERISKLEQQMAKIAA

Compound: COc1ccc(C2CC(c3cccs3)=NN2C(=O)CCl)cc1 (stereo not shown) [compound 4]
isoTOP-ABPP reactivity Q9NQW6_C712 ANLN ([3]; 100 μM in situ 231): 4.1
isoTOP-ABPP reactivity Q9ULV4_C420 CORO1C ([1]; 100 μM in situ 231): 1.3
isoTOP-ABPP reactivity O95229_C54 ZWINT ([2]; 100 μM in situ 231): 12.4
isoTOP-ABPP reactivity Q29RF7_C242 PDS5A ([4]; 100 μM in situ 231): 3.0
isoTOP-ABPP reactivity Q29RF7_C532 PDS5A ([4]; 100 μM in situ 231): 20.0

Compound: Cn1cc(S(=O)(=O)N2CCOCC2)cc1C(=O)NC(=O)CCl [compound 11]
isoTOP-ABPP ratio Q9NQW6_C712 ([3]; 100 μM in situ 231): 0.9
isoTOP-ABPP ratio Q9ULV4_C420 ([1]; 100 μM in situ 231): 0.9
isoTOP-ABPP ratio O95229_C54 ([2]; 100 μM in situ 231): 1.2
isoTOP-ABPP ratio, cysteine Q29RF7_C242 ([4]; 100 μM in situ 231): 0.9

Compound: O=C(CCl)NC(=O)NC12CC3CC(CC(C3)C1)C2 [compound 12]
isoTOP-ABPP ratio Q9NQW6_C712 ([3]; 200 μM, insitu, 231): 16.7
isoTOP-ABPP ratio Q9ULV4_C420 ([1]; 200 μM, insitu, 231): 2.2
isoTOP-ABPP ratio O95229_C54 ([2]; 200 μM, insitu, 231): 20.0
isoTOP-ABPP ratio, cysteine Q29RF7_C242 ([4]; 200 μM, insitu, 231): 12.9

Compound: O=C(CCl)NC12CC3CC(CC(C3)C1)C2 [compound 21]
isoTOP-ABPP ratio Q9ULV4_C420 ([1]; 200 μM, insitu, 231): 1.3
isoTOP-ABPP ratio O95229_C54 ([2]; 200 μM, insitu, 231): 0.8
isoTOP-ABPP ratio, cysteine Q29RF7_C242 ([4]; 200 μM, insitu, 231): 0.9

Compound: O=C(CCl)N1CCN(CC(=O)N2CCOCC2)CC1 [compound 29]
isoTOP-ABPP ratio O95229_C54 ([2]; 200 μM, insitu, ramos): 1.2

Compound: C=CC(=O)N(Cc1cccnc1)c1cc(C(F)(F)F)cc(C(F)(F)F)c1 [compound 31]
isoTOP-ABPP ratio Q9NQW6_C712 ([3]; 200 μM, insitu, 231): 0.7
isoTOP-ABPP ratio Q9ULV4_C420 ([1]; 200 μM, insitu, 231): 0.8
isoTOP-ABPP ratio Q9ULV4_C420 ([1]; 200 μM, insitu, ramos): 1.1
isoTOP-ABPP ratio Q29RF7_C532 ([4]; 200 μM, insitu, 231): 5.1
isoTOP-ABPP ratio Q29RF7_C532 ([4]; 200 μM, insitu, ramos): 8.1

Compound: C=CC(=O)Nc1cc(F)c(N2CCN(C(=O)OC(C)(C)C)CC2)c(F)c1 [compound 38]
isoTOP-ABPP ratio Q9NQW6_C712 ([3]; 200 μM, insitu, 231): 1.5
isoTOP-ABPP ratio Q9ULV4_C420 ([1]; 200 μM, insitu, 231): 1.4
isoTOP-ABPP ratio Q29RF7_C242 ([4]; 200 μM, insitu, 231): 1.0

Compound: Cc1ccc(C=C(C#N)C(=O)NCCN2CCOCC2)cc1 [compound 41]
isoTOP-ABPP ratio Q9NQW6_C712 ([3]; 200 μM, insitu, 231): 0.7
isoTOP-ABPP ratio Q9ULV4_C420 ([1]; 200 μM, insitu, 231): 0.8
isoTOP-ABPP ratio O95229_C54 ([2]; 200 μM, insitu, 231): 0.6
isoTOP-ABPP ratio Q29RF7_C532 ([4]; 200 μM, insitu, 231): 0.8

The remaining lines, values ahead:

isoTOP-ABPP reactivity Q9ULV4_C420 CORO1C ([1]; 200 μM, insitu, 231): 3.0
isoTOP-ABPP reactivity O95229_C54 ZWINT ([2]; 200 μM, insitu, 231): 3.4
Compound: COc1ccc2c(c1)CCCN2C(=O)CCl [compound 2]

isoTOP-ABPP reactivity Q9NQW6_C712 ANLN ([3]; 200 μM, insitu, 231): 14.1
isoTOP-ABPP reactivity Q9ULV4_C420 CORO1C ([1]; 200 μM, insitu, 231): 4.6
isoTOP-ABPP reactivity O95229_C54 ZWINT ([2]; 200 μM, insitu, 231): 3.1
isoTOP-ABPP reactivity Q29RF7_C242 PDS5A ([4]; 200 μM, insitu, 231): 1.0
Compound: COc1cc2c(cc1OC)CN(C(=O)CCl)CC2 [compound 8]

isoTOP-ABPP reactivity Q9NQW6_C712 ANLN ([3]; 200 μM, insitu, 231): 3.1
isoTOP-ABPP reactivity Q9ULV4_C420 CORO1C ([1]; 200 μM, insitu, 231): 2.0
isoTOP-ABPP reactivity O95229_C54 ZWINT ([2]; 200 μM, insitu, 231): 3.7
Compound: O=C(CCl)N1CCC(Cc2ccccc2)CC1 [compound 9]

isoTOP-ABPP ratio Q9NQW6_C712 ([3]; 200 μM, insitu, 231): 11.2
isoTOP-ABPP ratio Q9ULV4_C420 ([1]; 200 μM, insitu, 231): 3.4
isoTOP-ABPP ratio O95229_C54 ([2]; 200 μM, insitu, 231): 2.3
isoTOP-ABPP ratio, cysteine Q29RF7_C532 ([4]; 200 μM, insitu, 231): 20.0
Compound: O=C(CCl)N1CCN(S(=O)(=O)c2ccccc2F)CC1 [compound 10]

isoTOP-ABPP ratio Q9NQW6_C712 ([3]; 200 μM, insitu, 231): 1.3
isoTOP-ABPP ratio Q9ULV4_C420 ([1]; 200 μM, insitu, 231): 1.1
isoTOP-ABPP ratio Q9ULV4_C420 ([1]; 200 μM, insitu, ramos): 1.1
isoTOP-ABPP ratio O95229_C54 ([2]; 200 μM, insitu, 231): 0.8
isoTOP-ABPP ratio O95229_C54 ([2]; 200 μM, insitu, ramos): 1.4
isoTOP-ABPP ratio, cysteine Q29RF7_C532 ([4]; 200 μM, insitu, ramos): 2.0
Compound: O=C(CCl)NCCc1c[nH]c2ccccc12 [compound 13]

isoTOP-ABPP ratio Q9NQW6_C712 ([3]; 200 μM, insitu, 231): 1.0
isoTOP-ABPP ratio Q9ULV4_C420 ([1]; 200 μM, insitu, 231): 0.8
isoTOP-ABPP ratio O95229_C54 ([2]; 200 μM, insitu, 231): 0.5
isoTOP-ABPP ratio Q29RF7_C242 ([4]; 200 μM, insitu, 231): 0.9
Compound: CC(C)CCOCCNC(=O)CCl [compound 27]

isoTOP-ABPP ratio Q9NQW6_C712 ([3]; 200 μM, insitu, 231): 0.9
isoTOP-ABPP ratio Q9ULV4_C420 ([1]; 200 μM, insitu, 231): 0.7
isoTOP-ABPP ratio O95229_C54 ([2]; 200 μM, insitu, 231): 0.7
isoTOP-ABPP ratio Q29RF7_C242 ([4]; 200 μM, insitu, 231): 1.0
Compound: COc1ccccc1OCCNC(=O)CCl [compound 28]

isoTOP-ABPP ratio Q9NQW6_C712 ([3]; 200 μM, insitu, 231): 5.9
isoTOP-ABPP ratio Q9ULV4_C420 ([1]; 200 μM, insitu, 231): 3.2
Compound: CC1CCc2ccccc2N1C(=O)CCl (stereo not shown) [compound 45]

isoTOP-ABPP ratio Q9ULV4_C420 ([1]; 200 μM, insitu, 231): 1.1
isoTOP-ABPP ratio O95229_C54 ([2]; 200 μM, insitu, 231): 1.0
isoTOP-ABPP ratio Q29RF7_C242 ([4]; 200 μM, insitu, 231): 1.8
Compound: O=C(CCl)Nc1cccc2ncccc12 [compound 51]
